Laboratory results taken from patent US20240025849A1 (MAX DELBRÜCK-CENTRUM FÜR MOLEKULARE MEDIZIN IN DER …, priority 2020, published 2024).
Where two headings read alike, the source gives them in different places.

Key:
nNOS = experiment: NOS enzyme activity assay (Eurofins), nNOS; assay type: biochemical; details: C1: 1 nM and 1 μM; 30 min reaction
Description: (§1) In mammalians NO is produced by the three isoforms of NOS: iNOS, eNOS, and nNOS. To evaluate the direct influence of cl on the different isoforms of NOS, an enzyme activity assay was conducted by Eurofins. C1 was mixed with the enzyme buffer, which included co-factors and substrates and by adding the enzyme the reaction was initiated. After 30 min the reaction was stopped, and NO concentration was measured. The results are normalised to positive control performed without any additional compounds and are presented as percentage in inhibition. […] To test the compounds effect on iNOS a concentration range from […] 5 μM were applied ([…], 1, 10, 100 nM, 1, and 5 μM), and for testing eNOS and nNOS 1 nM and 1 μM were applied.

iNOS = experiment: NOS enzyme activity assay (Eurofins), iNOS; assay type: biochemical; details: C1: 1 μM up to 5 μM as printed; 30 min reaction
Description: as §1

[1] = system: primary cultured neonatal microglia; experiment: LPS induced NO release, Griess assay, laboratory scaled setup; assay type: cell-based, mouse; details: for IC50: Mus musculus, Microglia;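 on active: compounds at or above the IC50 cutoff were called inactive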
Description: Primary cultured neonatal microglia. For preparation of cultured neonatal microglia, P0-P3 mice were used. 10 brains were extracted, meninges and cerebellum were removed and put on ice with Hank's balanced salt solution (HBSS). The dissected brains were washed 3 times before adding 400 μL trypsin (0.1 mg/L) and DNAse (5 μg/L) in phosphate buffered saline (PBS). After 2 min of incubation with this solution, the reaction was blocked by adding plain medium. After removal of the medium, 1 mg DNAse was added and the cells were mechanically dissociated, with a Pasteur pipette followed by a glass pipette. The cells were centrifuged for 10 min at 129 g at 4° C. The supernatant was discarded. The pellet was resuspended in plain medium and plated (2.5 brains/flask) in Poly-L-Lysine coated flasks. The cells were washed after 2 days with PBS and incubated for another 7 days in plain medium. Afterwards the medium was replaced by plain medium with 33% L929 conditioned medium. After 2 days, cells were harvested by shaking them for 30 min at 150 rpm. The supernatant was centrifuged for 10 min at 129 g at 4° C. The cells were plated into a 96 well plate (100 000 cells/well, 200 μL medium per well). This procedure could be repeated 2 times with a 2 day interval.
Griess assay. Cells were seeded according to the protocols described above, after compounds and stimuli were added, 100 μl of supernatant was transferred into a new 96 well plate and 100 μl freshly mixed Griess reagent were added. Griess reagent was composed of reagent A (100 mg Naphthylethylene in 50 ml aqua dest.) and reagent B (1 g Sulfanilamide, […] H3PO4 (85%) in 44 mL aqua dest.) mixed 1:1. The solution was carefully mixed and the absorbance was determined in a microplate reader at a wavelength of 550 nm.
Dissolved sodium nitrite in plain medium served as a standard. Total amount of nitrite was calculated by a linear regression of the standard curve.
The activity of the compounds listed in column 1 of Table 1 as inhibitors of NO production was compared in murine primary cultured neonatal microglia as described above.

[2] = inhibitors of NO production, murine primary cultured neonatal microglia, read-out: activity class (IC50)
[3] = inhibitors of NO production, murine primary cultured neonatal microglia
[4] = inhibitors of NO production, murine primary cultured neonatal microglia, read-out: IC50
[5] = inhibitors of NO production, murine primary cultured neonatal microglia, read-out: active

CSC(=N)N [S-Methylisothiourea, reference compound]
enzymatic activity of nNOS (nNOS): reduce the enzyme activity as predicted

CC(=N)NCc1cccc(CN)c1 [W1400, reference compound]
enzymatic activity of iNOS (iNOS): reduce the enzyme activity as predicted

COc1ccc(NC(=O)[C@@H](NC(=O)[C@@H]2CCN2C(=O)OCc2ccccc2)c2ccc(OC)cc2)cc1 [Compound 30, benzyl (S)-2-(((S)-1-(4-methoxyphenyl)-2-((4-methoxyphenyl)amino)-2-oxoethyl)carbamoyl)azetidine-1-carboxylate]
IC50 [1, 2]: < 1000 nM
active [1, 3]: YES

COc1ccc(NC(=O)[C@@H](NC(=O)[C@@H]2CCCCN2C(=O)OCc2ccccc2)c2ccc(OC)cc2)cc1 [Compound 34, benzyl (S)-2-(((S)-1-(4-methoxyphenyl)-2-((4-methoxyphenyl)amino)-2-oxoethyl)carbamoyl)piperidine-1-carboxylate]
IC50 [1, 2]: < 200 nM
active [1, 3]: YES

COc1ccc(NC(=O)[C@@H](NC(=O)[C@@H]2CCCN2C(=O)CCc2ccoc2)c2ccc(OC)cc2)cc1 [Compound 14, (S)-1-(3-(furan-3-yl)propanoyl)-N—((S)-1-(4-methoxyphenyl)-2-((4-methoxyphenyl)amino)-2-oxoethyl)pyrrolidine-2-carboxamide]
IC50 [1, 4]: 147 nM
IC50 [1, 2]: < 200 nM
active [1, 3]: YES

COc1ccc([C@H](NC(=O)[C@@H]2CCCN2C(=O)OCc2ccccc2)C(=O)Nc2ccccc2)cc1 [Compound 43, benzyl (S)-2-(((S)-1-(4-methoxyphenyl)-2-oxo-2-(phenylamino)ethyl)carbamoyl)pyrrolidine-1-carboxylate]
IC50 [1, 5]: ≥ 10000 nM

COc1ccc(NC(=O)[C@@H](NC(=O)[C@@H]2CCCN2C(=O)C2CCCCC2)c2ccc(OC)cc2)cc1 [Compound 23, (S)-1-(cyclohexanecarbonyl)-N—((S)-1-(4-methoxyphenyl)-2-((4-methoxyphenyl)amino)-2-oxoethyl)pyrrolidine-2-carboxamide]
IC50 [1, 4]: 1080 nM
IC50 [1, 2]: < 10000 nM
active [1, 3]: YES

COc1ccc(NC(=O)[C@@H](NC(=O)[C@@H]2CCCN2C(=O)CCc2cccs2)c2ccc(OC)cc2)cc1 [Compound 16, (S)—N—((S)-1-(4-methoxyphenyl)-2-((4-methoxyphenyl)amino)-2-oxoethyl)-1-(3-(thiophen-2-yl)propanoyl)pyrrolidine-2-carboxamide]
IC50 [1, 4]: 122 nM
IC50 [1, 2]: < 200 nM
active [1, 3]: YES

COc1ccc(NC(=O)[C@@H](NC(=O)[C@@H]2CCCN2C(=O)OC(C)(C)C)c2ccc(OC)cc2)cc1 [Compound 28, tert-butyl (S)-2-(((S)-1-(4-methoxyphenyl)-2-((4-methoxyphenyl)amino)-2-oxoethyl)carbamoyl)pyrrolidine-1-carboxylate]
IC50 [1, 4]: 3300 nM
IC50 [1, 2]: < 10000 nM
active [1, 3]: YES

COc1ccc(NC(=O)[C@@H](NC(=O)[C@@H]2CCCN2)c2ccc(OC)cc2)cc1 [Compound 44]
IC50 [1, 5]: ≥ 10000 nM

COc1ccc(NC(=O)[C@@H](NC(=O)[C@@H]2CCCN2C(=O)OCc2ccccc2)c2ccc(OC)cc2)cc1 [Compound 18, (S)-benzyl-2-((S)—(4-methoxyphenylcarbamoyl)(4-methoxyphenyl)methylcarbamoyl)pyrrolidine-1-carboxylate]
inhibitory effect in the NO release assay ([1]; FIG. 9): shows an inhibitory effect
IC50 ([1]; 0.002 to 20 μM, FIG. 9, read-out: IC50, LPS induced NO production (stereoisomers)): 100 nM
IC50 [1, 4]: 107 nM
IC50 [1, 2]: < 200 nM
active [1, 3]: YES

COc1ccc(NC(=O)[C@@H](NC(=O)[C@@H]2CCCN2C(=O)CCC2CCOCC2)c2ccc(OC)cc2)cc1 [Compound 15, (S)—N—((S)-1-(4-methoxyphenyl)-2-((4-methoxyphenyl)amino)-2-oxoethyl)-1-(3-(tetrahydro-2H-pyran-4-yl)propanoyl)pyrrolidine-2-carboxamide]
IC50 [1, 4]: 117 nM
IC50 [1, 2]: < 200 nM
active [1, 3]: YES

COc1ccc(NC(=O)[C@@H](NC(=O)[C@@H]2CCCN2C(=O)c2ccccc2)c2ccc(OC)cc2)cc1 [Compound 24, (S)-1-benzoyl-N—((S)-1-(4-methoxyphenyl)-2-((4-methoxyphenyl)amino)-2-oxoethyl)pyrrolidine-2-carboxamide]
IC50 [1, 4]: 1100 nM
IC50 [1, 2]: < 10000 nM
active [1, 3]: YES
